Reference: US5684162A, “Leukotriene B4 antagonists” (G.D. Searle & Co., priority 1996, dated 1997)

How the values were obtained:
LTB4 Receptor = target: T1, LTB4 Receptor (Homo sapiens, UniProt Q15722); test: LTB4 Receptor Binding Assay ([3H]LTB4, human neutrophils); settings: 0.6×10^-9 M (3H) LTB4, human neutrophils, 0° C., 45 minutes, pH 7.4
T1 construct: Neutrophils were purified from venous blood of normal human donors; endogenous in cells; host or cells: human peripheral blood neutrophils (>95% pure, normal donors)
T1 sequence (Q15722 whole entry): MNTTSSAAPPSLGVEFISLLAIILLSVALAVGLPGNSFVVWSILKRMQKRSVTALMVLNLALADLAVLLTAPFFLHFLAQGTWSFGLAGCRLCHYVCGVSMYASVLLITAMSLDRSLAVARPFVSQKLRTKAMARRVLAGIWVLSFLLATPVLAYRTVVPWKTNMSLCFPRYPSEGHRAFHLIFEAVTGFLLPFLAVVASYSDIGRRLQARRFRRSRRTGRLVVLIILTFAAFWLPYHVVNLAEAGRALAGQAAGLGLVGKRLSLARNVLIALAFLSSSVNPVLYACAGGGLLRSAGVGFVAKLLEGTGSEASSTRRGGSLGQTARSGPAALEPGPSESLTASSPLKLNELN
Protocol: Preparation of Human Neutrophils
Neutrophils were purified from venous blood of normal human donors using standard techniques of dextran sedimentation, centrifugation on Ficoll-paque® (Pharmacia) or Histopaque® sterile solution (Sigma) and hypotonic lysis of erythrocytes (Boyum, A., Isolation of Leukocytes From Human Blood: Further Observations. Scand. J. Lab. Clin. Invest., 21 (Suppl. 97): 31, 1968).
LTB4 Receptor Binding Assay
Neutrophils (4-6×10^6) in 1 ml Hanks' balanced salt solution (HBSS) containing 10 mM HEPES buffer , pH 7.4 and […] nordihydroguaiaretic acid were incubated with 0.6×10^-9 M (^3 H) LTB4 in the presence or absence of test compounds. The incubation was carried out at 0° C. for 45 minutes and terminated by adding 5 ml of ice-cold HBSS followed by rapid filtration of the incubation mixture under vacuum through GF/C glass fiber filters. The filters were further washed with 10 ml HBSS and radioactivity was determined. Specific binding was defined as the difference between total binding and nonspecific binding which was not displaced by 10^-7 M unlabeled LTB4. All data refer to specific binding.

Human neutrophils = test: Modified Boyden Chamber Chemotaxis (LTB4-induced, human neutrophils); type: cell-based; settings: Neutrophil; 3×10^-8 M LTB4, human neutrophils, 40-90 minute incubation at 37° C., pH 7.3
Protocol: Modified Boyden Chamber Chemotaxis
Human neutrophils were isolated from citrated peripheral blood using standard techniques of dextran sedimentation, followed by centrifugation on Histopaque® sterile solution (Sigma) or Ficoll-paque® (Pharmacia) and hypotonic lysis of erythrocytes. A final cell suspension of 3.4×10^6 neutrophils/ml of HEPES-buffered Hanks' balanced salt solution (HBSS, pH 7.3) was added to the upper well (0.8 ml) of a modified Boyden chamber (blind well). The lower well (0.2 ml), separated by a polycarbonate membrane (Nucleopore Corp.), contained HBSS or 3×10^-8 M LTB4 in the presence or absence of test compound. Following a 40-90 minute incubation at 37° C. in 5% CO2 -95% air, cells from the lower well were lysed and nuclei counted in a Model S-Plus-IV Coulter Counter. The number of neutrophils migrating into the lower chamber in the absence of chemoattractant was subtracted from the number of cells migrating in the presence of a chemoattractant. Inhibition of chemotaxis by test compounds was expressed as percent inhibition relative to uninhibited control.

Structure (SMILES)	IC50 (LTB4 Receptor) [nM]	IC50 (Human neutrophils) [nM]
CCCc1c(OCCCOc2ccc(C(=O)NC)c(OC)c2CC2CC2)ccc2c1OC(CCC(=O)NS(=O)(=O)c1ccccc1)CC2 (stereo not drawn) [Example 5]	2.1	25
CCCc1c(OCCCOc2ccc(C(=O)NC)c(OC)c2CC2CC2)ccc2c1OC(CCC(=O)NS(=O)(=O)c1ccc(C)cc1)CC2 (stereo not drawn) [Example 6]	3.7	30
CCCc1c(OCCCOc2ccc(C(=O)NC)c(OC)c2CC2CC2)ccc2c1OC(CCC(=O)NS(=O)(=O)c1ccccc1C)CC2 (stereo not drawn) [Example 7]	3	23
